Assay results as given in ChEMBL document CHEMBL2424594, “Contributions of academic laboratories to the discovery and development of chemical biology tools” (J Med Chem, 2013).
pKi: −log10 of the molar value.

Columns and labels:
[1] = organism: Homo sapiens; experiment: Selectivity ratio of Ki for CB1 receptor (unknown origin) to Ki for CB2 receptor (unknown origin)
[2] = target: Cannabinoid receptor 2 (Homo sapiens, UniProt P34972); experiment: Binding affinity to CB2 receptor (unknown origin)
[3] = target: Cannabinoid receptor 1 (Homo sapiens, UniProt P21554); experiment: Binding affinity to CB1 receptor (unknown origin)
Chain of Cannabinoid receptor 1 (P21554 whole entry): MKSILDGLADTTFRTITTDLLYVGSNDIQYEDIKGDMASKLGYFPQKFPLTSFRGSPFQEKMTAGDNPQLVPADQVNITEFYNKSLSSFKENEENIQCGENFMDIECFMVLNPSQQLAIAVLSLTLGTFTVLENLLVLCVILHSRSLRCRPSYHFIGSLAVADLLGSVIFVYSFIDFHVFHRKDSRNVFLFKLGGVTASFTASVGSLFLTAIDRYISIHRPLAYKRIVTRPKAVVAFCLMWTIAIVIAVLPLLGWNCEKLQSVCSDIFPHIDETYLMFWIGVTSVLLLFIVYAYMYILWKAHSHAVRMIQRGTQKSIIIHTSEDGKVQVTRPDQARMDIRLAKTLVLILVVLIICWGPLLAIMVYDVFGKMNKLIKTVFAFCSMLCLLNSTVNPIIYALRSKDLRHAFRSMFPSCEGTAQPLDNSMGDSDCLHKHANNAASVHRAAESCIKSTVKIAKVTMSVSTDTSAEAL

Chain of Cannabinoid receptor 2 (P34972 whole entry): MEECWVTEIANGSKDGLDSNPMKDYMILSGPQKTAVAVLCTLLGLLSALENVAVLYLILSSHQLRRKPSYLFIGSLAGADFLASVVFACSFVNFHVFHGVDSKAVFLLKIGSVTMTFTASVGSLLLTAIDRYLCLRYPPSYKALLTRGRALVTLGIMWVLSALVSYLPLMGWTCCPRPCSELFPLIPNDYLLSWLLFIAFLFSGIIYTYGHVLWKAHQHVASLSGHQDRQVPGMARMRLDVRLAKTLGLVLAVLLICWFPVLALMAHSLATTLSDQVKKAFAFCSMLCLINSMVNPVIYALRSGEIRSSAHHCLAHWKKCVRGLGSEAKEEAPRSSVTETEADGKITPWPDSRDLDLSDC

SMILES: CCCn1cc(C(=O)c2ccc(C)c3ccccc23)c2ccccc21
- Ratio Ki [1]: 173

SMILES: CN1CCCCC1Cn1cc(C(=O)c2cc([N+](=O)[O-])ccc2I)c2ccccc21 (racemic)
- pKi [2]: 8.47
- pKi [3]: 6.55
- Ratio Ki [1]: 82
